Laboratory results reported in patent US20240094211A1, “COMPOSITIONS AND METHODS TARGETING S100A10 FOR THE TREATMENT AND DIAGNOSIS OF LIVER CANCER” (The University of Hong Kong, priority 2022, published 2024).

Legend:
[1] = tested on: PLC-S100A10 xenograft tumors; experiment: Chemoresistance / treatment in subcutaneous xenograft model; format: in vivo; details: nude mice
Experimental: All animal experiments were conducted and approved by the University of Hong Kong Committee on the Use of Live Animals in Teaching and Research (CULATR). The frequency of CSCs with tumor initiation capabilities was evaluated using limiting dilution assay. The BALB/c nude mouse xenograft model was used to evaluate tumorigenicity and chemoresistant ability in vivo. Nude mice were intrasplenically injected with HCC cells to assess the liver metastatic capacity in vivo. After surgery, mice recovered from anesthesia in a cage under a heater. Analgesia was provided to the nude mice during the first postoperative week. Tail vein injection of luciferase-labelled MHCC-97L cells in NOD SCID mice was used to assess lung metastatic ability. After mice were killed, the tumor tissues, livers, spleens, and lungs were excised and fixed in 4% paraformaldehyde overnight. Thereafter, fixed tissues were embedded in paraffin for further studies.
For chemoresistance in xenograft model, subcutaneous xenografts in nude mice were established with PLC/PRF/5 or MHCC97L cells. Treatment was started once the size of the xenograft reached ˜5 mm in diameter. The mice were randomly assigned into different groups, each consisting of at least 5 mice. Sorafenib at 10 mg/kg was administered daily through oral gavage. Mouse IgG antibody or anti-S100A10 antibody was administered at 10 μg once every 3 days by intraperitoneal injection.

[2] = tested on: S100A10; experiment: S100A10 expression under chemotherapeutic treatment (qRT-PCR, western blot); format: cell-based, human; details: HCC cells treated with chemotherapeutic agents
Experimental: Total RNA was extracted using the TRIZOL Reagent (Life Technologies). cDNA was synthesized by reverse transcription (Roche). SYRB Green PCR Master Mix (Applied Biosystems) and Applied Biosystems Quant Studio 5 Real-time PCR System were used for qRT-PCR analysis. All qRT-PCR reactions were tested in triplicates.
(§1) Quantified protein lysates were resolved on SDS-PAGE, transferred onto a polyvinylidenedifluoride (PVDF) membrane (Bio-Rad), and then blocked with 5% non-fat milk in Tris-buffered saline-Tween 20 (TBST) for 1 h at room temperature. The blocked membrane was then incubated with primary antibody diluted in 5% bovine serum albumin in TBST at 4° C. overnight.

[3] = tested on: HCC cells (PLC, 97L); experiment: Chemotherapy-induced cytotoxicity / chemoresistance (XTT assay); format: cell-based, human; details: for cell viability of S100A10-OE cells versus controls on treatment: PLC and 97L
[4] = tested on: HCC cells (PLC, 97L); experiment: Apoptotic assay (annexin-V staining, flow cytometry); format: cell-based, human; details: PLC and 97L, 48 h
Experimental: The apoptotic assay was determined by flow cytometry using annexin-V staining.

[5] = tested on: HIF-1α; experiment: HIF-1α expression under chemotherapeutic treatment (western blot); format: cell-based, human; details: HCC cells treated with chemotherapeutic agents
Experimental: as §1

[6] = tested on: PLC-Vec/S100A10 cells; experiment: XTT assay for cell proliferation with gefitinib; format: cell-based, human
[7] = tested on: PLC cells; experiment: Focus formation assay; format: cell-based, human
Experimental: Focus formation assay was used to assess anchorage-dependent growth. In brief, 1,000 cells were seeded in each well of six-well plate for approximately 2-3 weeks. Surviving colonies were stained and counted using crystal violet (Sigma-Aldrich).
(§2) HCC cells were seeded in 6-well plate and subjected to 2 μg EVs treatment for 48 hours one day after seeding. Then the cells were used for functional studies or western blotting. For treating with neutralizing antibodies, EVs were incubated with PBS (1:10 volume/volume), IgG antibody (1:10 volume/volume) (Santa Cruz, sc-2025), or anti-S100A10 neutralizing antibody (1:10 volume/volume) (Santa Cruz, sc-81153) before they were applied in in vitro or in vivo assays. For S100A10 NA or ITGAV treatment before EVs isolation, 20 ug S100A10 NA or IgG were pre-incubate with 1,000 million cells and then seed in medium with 10% EVs free FBS. Then the EVs were collected after 48 hours.

[8] = tested on: HCC cells (PLC, 97L); experiment: Transwell migration and matrigel invasion assays (pretreated HCC cells); format: cell-based, human
Experimental: Transwell migration and invasion assays were performed to evaluate cell motility (Corning, #353097 for migration, #354480 for invasion). Approximately 1×10^5 cells were seeded in the medium without FBS on transwell upper chambers, and the lower chamber was supplied with medium with 10% FBS, with the indicated conditional medium, or EVs. The cells that migrated and invaded to the lower membrane surface were stained using crystal violet and then counted under microscopy.
as §2

[9] = tested on: PLC cells; experiment: Sphere formation assay; format: cell-based, human
Experimental: A total of 1,000 cells were cultured in 0.25% methyl cellulose (Sigma-Aldrich) supplemented DMEM/F12 medium (Life Technologies) with 20 ng/mL EGF (Life Technologies), 10 ng/mL basic FGF (Life Technologies), B27 (1:50, GIBCO), and 4 μg/mL insulin (BIOIND, Kibbutz Beit Haemek, Israel) in 24-well plates, which were coated with poly HEMA (Sigma-Aldrich). The cells were replenished with 30 μL supplementary medium every other day.
as §2

[10] = tested on: MMP2, fibronectin and EGF on EVs; experiment: Western blotting of MMP2, fibronectin, EGF and S100A10 in EVs and cells; format: cell-based, human; details: PLC-S100A10 cells treated 48 hours, compared with control GRADSP peptides (RAD)
Experimental: For EVs isolation from cell culture supernatants, HCC cells were cultured in medium with 10% EV-depleted FBS, which was prepared by 100,000× g centrifugation overnight (≥12 h) at 4° C. (Himac, CP100NX Ultracentrifuges). EVs were purified by differential centrifugation after the cell culture supernatant were collected. Briefly, cell culture supernatants were centrifuged at 2000×g for 15 min to remove cell debris and dead cells. Then the supernatant was centrifugated at 20000×g for 30 min at 4° C. to remove microvesicles. Then the supernatant was first passed through 0.22 μm filter followed by ultracentrifugation at 100,000×g for 2 h at 4° C. to collect EVs. The EVs were then washed with PBS and collected by ultracentrifugation at 100,000×g for another 2 h at 4° C. HCC patients' or healthy donors' plasma derived EVs were purified by differential centrifugation. The plasma was first centrifuged at 4000 g for 15 min to obtain cell-free plasma. Then, 500 μL of the obtained plasma was toped-up to 1 mL and then centrifuged at 20,000 g for 1 hour (Himac, CP100NX Ultracentrifuges). The collected supernatants were then centrifuged at 100,000 g for 2 h at 4° C. […]
Quantified protein lysates were resolved on SDS-PAGE, transferred onto a polyvinylidenedifluoride (PVDF) membrane (Bio-Rad), and then blocked with 5% non-fat milk in Tris-buffered saline-Tween 20 (TBST) for 1 h at room temperature. […]

| Compound | xenograft tumor growth in PLC-S100A10 group versus control group when treated [1] | expression of S100A10 [2] | cell viability of S100A10-OE cells versus controls on treatment [3] | apoptotic indices of S100A10-OE cells versus controls on treatment [4] | expression of HIF-1α [5] | also measured |
| --- | --- | --- | --- | --- | --- | --- |
| O=c1[nH]cc(F)c(=O)[nH]1 [5-FU, 5-flurouracil] | significantly larger | upregulated | significantly higher | lower | – | – |
| N.N.[Cl][Pt][Cl] [cisplatin] | significantly larger | upregulated | significantly higher | lower | upregulated | – |
| COc1cc2ncnc(Nc3ccc(F)c(Cl)c3)c2cc1OCCCN1CCOCC1 [gefitinib] | – | – | – | – | – | sensitivity of S100A10-OE cells versus Vec cells (cell proliferation) [6]: more sensitive; focus formation of S100A10-OE cells [7]: significantly suppressed; invasion ability of S100A10-OE cells [8]: significantly suppressed; migration ability of S100A10-OE cells [8]: significantly suppressed; chemoresistance of S100A10-OE cells ([3]; PLC S100A10-OE cells, sorafenib): significantly suppressed; sphere formation of S100A10-OE cells [9]: significantly suppressed |
| CNC(=O)c1cc(Oc2ccc(NC(=O)Nc3ccc(Cl)c(C(F)(F)F)c3)cc2)ccn1 [sorafenib] | significantly larger | upregulated | significantly higher | lower | upregulated | – |
| GRGDSP [RGD peptide] | – | – | – | – | – | S100A10 on EVs [10]: no changes; levels of MMP2, fibronectin and EGF on EVs [10]: greatly reduced |
